Tested on: HBV
Assay: Inhibition of HBV infection of human liver buds by drugs (intracellular HBV 3.5k RNA and HBV DNA in culture supernatant)
Type: cell-based
Conditions: HBV 5,000 copies per cell, cultured for 10 days, FIG. 8, vs Con
Description: The endodermal cells obtained, vascular endothelial cells (human umbilical vein-derived endothelial cells) (Lonza, Basel, Switzerland) and undifferentiated mesenchymal cells (human bone marrow-derived mesenchymal stem cells) (Lonza, Basel, Switzerland) were mixed at 10:7:1 (400 cells: 280 cells: 40 cells per organ bud) to prepare human liver buds (120-150 μm in size).
The human liver buds prepared in (2) above were cultured in DMSO-containing medium for 7 days and further cultured in HGF-, OSM- and DEX-containing medium for 7 days, followed by infection with HBV. HBV was recovered from culture supernatant of HepG2.2.15 cells which had been prepared by transferring the intact HBV genome (genotype D) into human hepatoma cell line HepG2 by lipofection. The liver buds were infected with approx. 500 copies of HBV per endodermal cell in 4% PEG8000-containing medium and cultured for about 30 days.
(5) Culture supernatants of human liver buds and human iPS-cell derived hepatocytes were recovered at days 10, 20 and 30 post HBV infection, followed by measurement of HBV DNA. (6) Human liver buds and human iPS-cell derived hepatocytes were recovered at days 10, 20 and 30 post HBV infection, followed by measurement of HBV 3.5k RNA. (7) The inside of human liver buds was immunostained with HBc antibody at days 10, 20 and 30 post HBV infection. (8) Human primary hepatocytes (PXB cells; Phoenix Bio) were infected with the culture supernatant of human liver buds at day 20 post HBV infection. (9) Human liver buds and human iPS-cell derived hepatocytes were recovered at day 20 post HBV infection, followed by measurement of covalently closed circular DNA (cccDNA). (10) Human liver buds at day 10 post HBV infection and non-HBV-infected human liver buds in the corresponding period were fixed with paraformaldehyde and glutaraldehyde, and electron micrographs were taken. (11) Human liver buds were infected with HBV (5,000 copies per cell). […] Intracellular HBV 3.5k RNA and HBV DNA in culture supernatant were measured.

In the case of C=C1[C@H](CO)[C@@H](O)C[C@@H]1n1cnc2c(=O)[nH]c(N)nc21 [ETV, entecavir, reference compound], the “infection of human liver bud with HBV” value (entecavir) is reported as “inhibited”.

In the case of interferon α [IFN-α], the “infection of human liver bud with HBV” value (interferon α 1000 U/ml) is reported as “inhibited”.

interferon γ [IFN-γ] was tested, and the “infection of human liver bud with HBV” value (interferon γ 1000 U/ml) was “inhibited”.
